Data from publication PMC11020753, “Contribution of amino acids in the active site of dipeptidyl peptidase 4 to the catalytic action of the enzyme” (PLOS ONE, 2024).
Where two headings read alike, the source gives them in different places. Non-standard residues stand in square brackets, D forms with d. Residues, ends and D or L forms follow the SMILES beside them. *: point of attachment. AMC = Cc1cc(=O)oc2cc(N*)ccc12; Tle = CC(C)(C)[C@H](N)C(=O)O

Assays:
Format in all cases: biochemical
DP4 variant E205A [1] = target: T1, DP4 variant E205A (Homo sapiens, UniProt P27487, E205A); assay: Hydrolysis of dipeptide-AMC substrates (fluorescence); conditions: substrate hydrolysis, 100 mM HEPES-buffer (pH 7.6), T = 30 °C
T1 construct: His(6)-37-766 hDP4 containing fractions were concentrated to 1 ml as described above; His6 (N); made in house; host or cells: Pichia pastoris X-33, vector pPICZα C (secreted)
Protocol: (§1) The reactions were performed in 100 mM HEPES buffer, pH 7.6 at 30°C in a total assay volume of 270 μl by using 96-well plates. […] Fluorescence was detected with a […]luor Plus (TECAN) at an excitation wavelength of 380 nm and an emission wavelength of 465 nm.

DP4 variant E206A [2] = target: T2, DP4 variant E206A (Homo sapiens, UniProt P27487, E206A); assay: as above; conditions: substrate hydrolysis, 100 mM HEPES-buffer (pH 7.6), T = 30 °C
T2 construct: His(6)-37-766 hDP4 containing fractions were concentrated to 1 ml as described above; His6 (N); made in house; host or cells: Pichia pastoris X-33, vector pPICZα C (secreted)
Protocol: as §1

DP4 variant N710A [3] = target: T3, DP4 variant N710A (Homo sapiens, UniProt P27487, N710A); assay: as above; conditions: for Km / kcat: N710A, substrate hydrolysis, 100 mM HEPES-buffer (pH 7.6), T = 30 °C
T3 construct: His(6)-37-766 hDP4 containing fractions were concentrated to 1 ml; made in house; host or cells: Pichia pastoris X-33 (vector pPICZα C, secreted)
Protocol: as §1

DP4 variant R125A [4] = target: T4, DP4 variant R125A (Homo sapiens, UniProt P27487, R125A); assay: as above; conditions: substrate hydrolysis, 100 mM HEPES-buffer (pH 7.6), T = 30 °C
T4 construct: His(6)-37-766 hDP4 containing fractions were concentrated to 1 ml; made in house; host or cells: Pichia pastoris X-33 (vector pPICZα C, secreted)
Protocol: as §1

DP4 variant R125K [5] = target: T5, DP4 variant R125K (Homo sapiens, UniProt P27487, R125K); assay: as above; conditions: substrate hydrolysis, 100 mM HEPES-buffer (pH 7.6), T = 30 °C
T5 construct: His(6)-37-766 hDP4 containing fractions were concentrated to 1 ml; made in house; host or cells: Pichia pastoris X-33 (vector pPICZα C, secreted)
Protocol: as §1

wild type DP4 [6] = target: T6, wild type DP4 (Homo sapiens, UniProt P27487); assay: as above; conditions: substrate hydrolysis, 100 mM HEPES-buffer (pH 7.6), T = 30 °C
T6 construct: His(6)-37-766 hDP4 containing fractions were concentrated to 1 ml; made in house; host or cells: Pichia pastoris X-33 (vector pPICZα C, secreted)
Protocol: as §1

DP4 variant N710Q [7] = target: T7, DP4 variant N710Q (Homo sapiens, UniProt P27487, N710Q); assay: as above
T7 construct: His(6)-37-766 hDP4 containing fractions were concentrated to 1 ml; made in house; host or cells: Pichia pastoris X-33 (vector pPICZα C, secreted)
Protocol: (§2) The reactions were performed in 100 mM HEPES buffer, pH 7.6 at 30°C in a total assay volume of 270 μl by using 96-well plates. […] Fluorescence was detected with a [sequence]luor Plus (TECAN) at an excitation wavelength of 380 nm and an emission wavelength of 465 nm.

DP4 variant N710D [8] = target: T8, DP4 variant N710D (Homo sapiens, UniProt P27487, N710D); assay: as above; conditions: substrate hydrolysis, 100 mM HEPES-buffer (pH 7.6), T = 30 °C
T8 construct: His(6)-37-766 hDP4 containing fractions were concentrated to 1 ml; made in house; host or cells: Pichia pastoris X-33 (vector pPICZα C, secreted)
Protocol: as §2

DP4 variant E205A [9] = target: T1, DP4 variant E205A; assay: IC50 determination with substrate Gly-Pro-AMC; conditions: 100 mM HEPES-buffer (pH 7.6), T = 30 °C, substrate Gly-Pro-AMC in the range of Km
Protocol: as §1

DP4 variant E206A [10] = target: T2, DP4 variant E206A; assay: IC50 determination with substrate Gly-Pro-AMC; conditions: bounds given in mM, 100 mM HEPES-buffer (pH 7.6), T = 30 °C, substrate Gly-Pro-AMC in the range of Km
Protocol: as §1

DP4 variant N710A [11] = target: T3, DP4 variant N710A; assay: IC50 determination with substrate Gly-Pro-AMC; conditions: bounds given in mM, 100 mM HEPES-buffer (pH 7.6), T = 30 °C, substrate Gly-Pro-AMC in the range of Km
Protocol: as §1

DP4 variant N710D [12] = target: T8, DP4 variant N710D; assay: IC50 determination with substrate Gly-Pro-AMC; conditions: 100 mM HEPES-buffer (pH 7.6), T = 30 °C, substrate Gly-Pro-AMC in the range of Km
Protocol: as §1

DP4 variant N710Q [13] = target: T7, DP4 variant N710Q; assay: IC50 determination with substrate Gly-Pro-AMC; conditions: bounds given in mM, 100 mM HEPES-buffer (pH 7.6), T = 30 °C, substrate Gly-Pro-AMC in the range of Km
Protocol: as §1

DP4 variant R125A [14] = target: T4, DP4 variant R125A; assay: IC50 determination with substrate Gly-Pro-AMC; conditions: 100 mM HEPES-buffer (pH 7.6), T = 30 °C, substrate Gly-Pro-AMC in the range of Km
Protocol: as §1

DP4 variant R125K [15] = target: T5, DP4 variant R125K; assay: IC50 determination with substrate Gly-Pro-AMC; conditions: 100 mM HEPES-buffer (pH 7.6), T = 30 °C, substrate Gly-Pro-AMC in the range of Km
Protocol: as §1

wild type DP4 [16] = target: T6, wild type DP4; assay: IC50 determination with substrate Gly-Pro-AMC; conditions: 100 mM HEPES-buffer (pH 7.6), T = 30 °C, substrate Gly-Pro-AMC in the range of Km
Protocol: as §1

[17] = N710Q, substrate hydrolysis, 100 mM HEPES-buffer (pH 7.6), T = 30 °C

T8 sequence (P27487 37-766 N710D): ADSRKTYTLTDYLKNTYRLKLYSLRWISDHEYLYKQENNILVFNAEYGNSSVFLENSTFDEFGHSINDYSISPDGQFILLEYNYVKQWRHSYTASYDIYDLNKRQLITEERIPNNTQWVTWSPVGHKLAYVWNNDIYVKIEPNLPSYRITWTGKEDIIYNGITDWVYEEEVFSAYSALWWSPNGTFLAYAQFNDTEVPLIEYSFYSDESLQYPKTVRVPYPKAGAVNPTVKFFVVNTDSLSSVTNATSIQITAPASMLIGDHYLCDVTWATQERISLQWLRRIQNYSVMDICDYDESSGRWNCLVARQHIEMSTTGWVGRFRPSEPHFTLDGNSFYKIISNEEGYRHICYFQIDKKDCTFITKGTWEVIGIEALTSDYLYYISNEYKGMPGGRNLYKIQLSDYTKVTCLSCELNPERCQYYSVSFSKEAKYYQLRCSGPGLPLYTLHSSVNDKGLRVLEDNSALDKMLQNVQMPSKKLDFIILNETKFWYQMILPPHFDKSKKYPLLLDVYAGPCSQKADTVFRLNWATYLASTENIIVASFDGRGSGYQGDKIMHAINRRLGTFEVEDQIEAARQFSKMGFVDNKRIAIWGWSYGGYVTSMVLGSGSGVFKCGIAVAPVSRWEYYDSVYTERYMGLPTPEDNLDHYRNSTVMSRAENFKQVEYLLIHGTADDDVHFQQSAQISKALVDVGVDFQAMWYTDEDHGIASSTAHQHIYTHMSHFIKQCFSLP
T5 sequence (P27487 37-766 R125K): as the sequence (P27487 37-766 N710D) above, with R89K, D674N counted along it
T1 sequence (P27487 37-766 E205A): as the sequence (P27487 37-766 N710D) above, with E169A, D674N counted along it
T7 sequence (P27487 37-766 N710Q): as the sequence (P27487 37-766 N710D) above, with D674Q counted along it
T6 sequence (P27487 37-766): as the sequence (P27487 37-766 N710D) above, with D674N counted along it
T4 sequence (P27487 37-766 R125A): as the sequence (P27487 37-766 N710D) above, with R89A, D674N counted along it
T3 sequence (P27487 37-766 N710A): as the sequence (P27487 37-766 N710D) above, with D674A counted along it
T2 sequence (P27487 37-766 E206A): as the sequence (P27487 37-766 N710D) above, with E170A, D674N counted along it

Row | Km (DP4 variant E205A [1]) [µM] | kcat (DP4 variant E205A [1]) [s⁻¹] | kcat (DP4 variant E206A [2]) | Km (DP4 variant N710A [3]) [µM] | kcat (DP4 variant N710A [3]) | Km (DP4 variant R125A [4]) [µM] | kcat (DP4 variant R125A [4]) [s⁻¹] | Km (DP4 variant R125K [5]) [µM] | kcat (DP4 variant R125K [5]) [s⁻¹] | Km (wild type DP4 [6]) [µM] | kcat (wild type DP4 [6]) [s⁻¹] | kcat (DP4 variant N710Q [7]; [17]) | kcat (DP4 variant N710D [8]) [s⁻¹] | Structure (SMILES) | other results
1 | 4700 | 0.15 ± 0.015 | No hydrolysis at concentrations < 10 mM | 410 | (9.4 ± 0.06) · 10^−3 s^−1 | 710 | 2.3 ± 0.08 | 1500 | 2.6 ± 0.09 | 550 | 5.7 ± 0.18 | No hydrolysis at concentrations < 10 mM | 0.05 ± 0.003 | Cc1cc(=O)oc2cc(NC(=O)[C@H](C)NC(=O)[C@H](C)N)ccc12 [Ala-Ala-AMC] (H-Ala-Ala-{AMC}) | Km (DP4 variant E206A [2]): No hydrolysis at concentrations < 10 mM; Km (DP4 variant N710Q [7]; [17]): No hydrolysis at concentrations < 10 mM; Km (DP4 variant N710D [8]): 1800 µM
2 | 240 | 17 ± 0.2 | 0.8 ± 0.05 s⁻¹ | 1700 | 0.74 ± 0.03 s⁻¹ | 37 | 48 ± 1.0 | 38 | 37 ± 0.5 | 19 | 32 ± 0.9 | 0.23 ± 0.01 s⁻¹ | 19 ± 0.6 | Cc1cc(=O)oc2cc(NC(=O)[C@@H]3CCCN3C(=O)[C@H](C)N)ccc12 [Ala-Pro-AMC] (H-Ala-Pro-{AMC}) | Km (DP4 variant E206A [2]; read-out: Km): 3400 µM; Change of Km-value in comparison to the wild type enzyme (decreased) (DP4 variant N710A [3]; N710A vs wild type): 100 fold; Drop of kcat-value in comparison to the wild type enzyme (DP4 variant N710A [3]; N710A vs wild type): ~30 factor; Change of Km-value in comparison to the wild type enzyme (decreased) (DP4 variant N710Q [7]; N710Q vs wild type): 100 fold; Drop of kcat-value in comparison to the wild type enzyme (DP4 variant N710Q [7]; N710Q vs wild type): ~30 factor
3 | – | – | – | – | – | – | – | – | – | – | – | – | – | CC[C@H](C)[C@H](NC(=O)[C@@H]1CCCN1C(=O)[C@@H](N)C(C)(C)C)C(=O)O [t-Bu-Gly-Pro-Ile, t-Butyl-Gly-Pro-Ile] (H-[Tle]-Pro-Ile-OH) | IC50 (DP4 variant E205A [9]): 1700 µM; IC50 (DP4 variant E206A [10]): > 10 mM; IC50 (DP4 variant N710A [11]): > 10 mM; IC50 (DP4 variant N710D [12]): 600 µM; IC50 (DP4 variant N710Q [13]): > 10 mM; IC50 (DP4 variant R125A [14]): 400 µM; IC50 (DP4 variant R125K [15]): 200 µM; IC50 (wild type DP4 [16]): 3.6 µM
